In the supplement of paper PMC10307832 one finds relative viability data, which are given here for one cell line.

What all share (assay): relative viability (nuclei count vs DMSO), 5 days (fraction); higher = more cells survive
Compound in test [1]: C1/C(=C\C2=CC=CS2)/C(=O)/C(=C/C3=CC=CS3)/C1 + C[C@]1(O)C[C@@H](c2nc(-c3ccc4ccc(-c5ccccc5)nc4c3)c3c(N)nccn32)C1 [Linsitinib] (partner 1 µM)
The gist of the method:
(§1)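 Lung cancer cell lines in 1536-well plates got either a single drug or a fixed anchor-drug dose together with five library-drug doses (not always all listed) in √10 steps, by pin tool, on the day after seeding. Nuclei were counted after 5 days, and relative viability is the treated-to-vehicle ratio of nuclei counts. Values are medians of duplicate plates.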

Compound in test [2]: C1/C(=C\C2=CC=CS2)/C(=O)/C(=C/C3=CC=CS3)/C1 + Cc1cc(Nc2cc(N3CCN(C)CC3)nc(Sc3ccc(NC(=O)C4CC4)cc3)n2)n[nH]1 [Tozasertib] (partner 0.1 µM)
In short, it runs like this: as §1

Compound in the test “TPCA-1 + OSI-027”: C1=CC(=CC=C1C2=CC(=C(S2)NC(=O)N)C(=O)N)F [TPCA-1] + COc1cccc2cc(-c3nc([C@H]4CC[C@H](C(=O)O)CC4)n4ncnc(N)c34)[nH]c12 [OSI-027] (partner 0.5 µM)
In short, it runs like this: as §1

Compound in the test “TPCA-1 + Dasatinib”: C1=CC(=CC=C1C2=CC(=C(S2)NC(=O)N)C(=O)N)F [TPCA-1] + Cc1nc(Nc2ncc(C(=O)Nc3c(C)cccc3Cl)s2)cc(N2CCN(CCO)CC2)n1 [Dasatinib] (partner 0.075 µM)
The gist of the method:
as §1

For UMC-11, the relative viability was 1.02 in test [1] (first compound 0.2 µM); 1.07 in test [1] (first compound 0.6325 µM); 1.03 in test [1] (first compound 2 µM); 1 in test [1] (first compound 20 µM); 0.204 in test [2] (first compound 0.2 µM); 0.192 in test [2] (first compound 0.6325 µM). The relative viability in test [2] (first compound 2 µM) is 0.212; in test [2] (first compound 6.325 µM), 0.202; in test [2] (first compound 20 µM), 0.205; in the test with TPCA-1 + OSI-027 (first compound 0.04 µM), 0.536; with TPCA-1 + OSI-027 (first compound 0.1265 µM) it was 0.337; with TPCA-1 + OSI-027 (first compound 0.4 µM), 0.466. The relative viability with TPCA-1 + OSI-027 (first compound 1.265 µM) came to 0.4; with TPCA-1 + OSI-027 (first compound 4 µM) it was 0.234; with TPCA-1 + Dasatinib (first compound 0.04 µM) it was 0.494; with TPCA-1 + Dasatinib (first compound 0.1265 µM), 0.443; in the test with TPCA-1 + Dasatinib (first compound 0.4 µM), 0.494; with TPCA-1 + Dasatinib (first compound 1.265 µM) it was 0.457. Also, in the test with TPCA-1 + Dasatinib (first compound 4 µM), the relative viability amounted to 0.222.
